According to ChEMBL document CHEMBL1201862, “PubChem BioAssay data set” (2004):
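Five compound concentrations were applied to cells in 96-well plates for 48 hours; endpoints were derived by simple linear interpolation of the resulting dose-response curve. The concentration for 50% growth inhibition is given as GI50.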 Active and inactive are the calls of the source. No stated cut-off is given here; in the data, active = GI50 up to about 1.1 µM and inactive = higher.

Experiments:
Experiment in all cases: NCI tumour cell line growth inhibition, 48 h
DLD-1 = tested on: DLD-1
XF498 = tested on: XF498
LXFL 529 = tested on: LXFL 529
786-0 = tested on: 786-0
MDA-MB-435 = tested on: MDA-MB-435
RXF 631 = tested on: RXF 631
MDA-MB-231 = tested on: MDA-MB-231
T47D = tested on: T47D
MDA-N = tested on: MDA-N

| Compound | GI50 (DLD-1) | GI50 (XF498) | GI50 (LXFL 529) | GI50 (786-0) | GI50 (MDA-MB-435) | GI50 (RXF 631) | GI50 (MDA-MB-231) | GI50 (T47D) | GI50 (MDA-N) |
| --- | --- | --- | --- | --- | --- | --- | --- | --- | --- |
| CC(=O)OC1C=C(C=O)C(O)(C=O)C2(C)CCCC(C)(C)C12 (stereo unspecified) | 1.05 µM (active) | 1.49 µM (inactive) | – | – | – | – | – | – | – |
| CCOC1CC2OC(=O)C1C=C2C(=O)OC (stereo unspecified) | 23 µM (inactive) | 23.6 µM (inactive) | 15.5 µM (inactive) | 29.2 µM (inactive) | – | – | – | – | – |
| O=C1OC(c2ccccc2)=N/C1=C\c1cccnc1 | – | – | – | – | > 100 µM (inactive) | – | – | – | – |
| COC(=O)[C@@H](O)[C@](O)(CCC(C)C)C(=O)O[C@@H]1C(OC)=C[C@]23CCCN2CCc2cc4c(cc2[C@H]13)OCO4 | 1 µM (active) | – | – | – | – | – | – | – | – |
| CCCCCCCCC1=CCC(CN(C)C)C1=O (stereo unspecified) | 18.8 µM (inactive) | – | – | – | – | – | – | – | – |
| CC(C)C1=CC2=CC[C@@H]3[C@](C)(CCC[C@@]3(C)C(=O)O)[C@H]2CC1 [ABIETIC ACID] | > 67.9 µM (inactive) | 73.6 µM (inactive) | 64.3 µM (inactive) | – | – | 62.8 µM (inactive) | – | – | – |
| NC1CC(=O)c2sc(I)cc21 (stereo unspecified) | – | – | – | > 100 µM (inactive) | 88.7 µM (inactive) | – | > 100 µM (inactive) | > 100 µM (inactive) | > 100 µM (inactive) |
| N/C(=N\O)N/N=C\c1ccccc1O | 5.02 µM (inactive) | 1.04 µM (active) | – | – | – | – | – | – | – |
| CC1=COC2=C(C)C(=O)C(=O)c3c(C)ccc1c32 [MANSONONE F] | – | – | – | 4.1 µM (inactive) | 1.9 µM (inactive) | – | 3.28 µM (inactive) | 8.24 µM (inactive) | 1.78 µM (inactive) |
| CC(=N/NC(=S)N1CCCCCC1)/C(C)=N\NC(=S)N1CCCCCC1 | – | – | – | 4.54 µM (inactive) | 1.83 µM (inactive) | – | 7.98 µM (inactive) | 1.75 µM (inactive) | 6.55 µM (inactive) |
| CCN(CC)C(=O)C(C)n1cc(C)c(=O)[nH]c1=O (stereo unspecified) | – | > 100 µM (inactive) | > 100 µM (inactive) | > 100 µM (inactive) | – | – | – | – | – |
| CCOC(=O)C1C(c2cc(OC)c(O)c(OC)c2)c2cc3c(cc2OC1(C)O)OCO3 (stereo unspecified) | 42.6 µM (inactive) | 31 µM (inactive) | – | – | – | 75.9 µM (inactive) | – | – | – |
| CN1CCc2c1nc(-c1ccc([N+](=O)[O-])cc1)c1c2N(C)CC1 | 46.3 µM (inactive) | > 100 µM (inactive) | > 100 µM (inactive) | > 100 µM (inactive) | – | > 100 µM (inactive) | – | – | – |
| CCOC(=O)c1c(NC(=S)NCc2ccccc2)sc2c1CCN(C)C2 | – | – | – | – | – | – | 47.8 µM (inactive) | 41.5 µM (inactive) | > 100 µM (inactive) |
| NC(=O)C(=O)N/N=C1/c2ccccc2CC1C1(O)C(=O)Nc2c(Cl)cc(Cl)cc21 (stereo unspecified) | > 100 µM (inactive) | > 100 µM (inactive) | – | – | – | – | – | – | – |
| C=C1C(=O)O[C@H]2C/C(C)=C/CC[C@@]3(C)O[C@](C)(CC[C@@H]3I)[C@@H](I)C[C@@H]12 | – | – | – | 4.68 µM (inactive) | 3.86 µM (inactive) | – | 6.75 µM (inactive) | 5.46 µM (inactive) | 2.49 µM (inactive) |
| Cc1cc2cccc(Cl)c2nc1C(=O)c1ccccc1 | > 100 µM (inactive) | 82 µM (inactive) | > 100 µM (inactive) | – | – | 89.3 µM (inactive) | – | – | – |
| CSCSCC(CO)NC(=O)/C=C\c1c(C)[nH]c(=O)[nH]c1=O (stereo unspecified) | 11.6 µM (inactive) | 1.61 µM (inactive) | – | – | – | – | – | – | – |
| Oc1ccc(Cl)cc1C1=Nn2c(COc3ccc4c(c3)CCCC4)nnc2SC1 | – | – | – | – | 17 µM (inactive) | – | 14.8 µM (inactive) | 11.2 µM (inactive) | 14.6 µM (inactive) |
